Measurements: US20200190136A1, “METHODS FOR GENERATING SMALL MOLECULE DEGRADERS AND DIMERIZERS” (DANA-FARBER CANCER INSTITUTE, INC., priority 2017, published 2020)
“Also recorded” adds a separate entry of the source. Each block holds one compound with its values, some of them ahead of it.

Assays:
BRD4BD1 and BRD4BD2 = conditions: Filippakopoulos, Qi et al. 2010; cited from earlier work
[1] = tested on: BRD2BD1, BRD2BD2, BRD3BD1, BRD3BD2, BRD4BD1, BRD4BD2; test: EGFP/mCherry reporter cellular degradation across individual BET bromodomains; format: cell-based, human; conditions: for degradation activity across BET bromodomains: individual bromodomains of BRD2, BRD3, BRD4; for selectivity of BRD4 degradation over BRD2 and BRD3: EGFP/mCherry reporter assay
Procedure: (§1) Stable cell lines expressing eGFP-protein fusion and mCherry reporter were generated using Flip-In 293 system. Plasmid (0.3 μg) and pOG44 (4.7 μg) DNA were preincubated in 100 μL of Opti-MEM I (Gibco, Life Technologies) media containing 0.05 mg/ml Lipofectamine 2000 (Invitrogen) for 20 min and added to Flip-In 293 cells containing 1.9 ml of DMEM media (Gibco, Life Technologies) per well in a 6-well plate format (Falcon, 353046). Cells were propagated after 48 h and transferred into a 10 cm^2 plate (Corning, 430165) in DMEM media containing 50 μg/ml of Hygromycin B (REF 10687010, Invitrogen) as a selection marker. Following 2-3 passage cycle FACS (FACSAria II, BD) was used to enrich for cells expressing eGFP and mCherry.
(§2) Cells were seeded at 30-50% confluency in either 24, 48 or 96 well plates (3524, 3548, 3596 respectively, Costar) a day before compound treatment. Titrated compounds were incubated with cells for 5 h following trypsinisation and resuspention in DMEM media, transferred into 96-well plates (353910, Falcon) and analyzed by flow cytometer (guava easyCyte HT, Millipore). Signal from 5000 cells per well was acquired in singlicate or duplicate and the eGFP and mCherry florescence monitored. Data was analyzed using FlowJo (FlowJo, LCC). […] The eGFP protein abundance relative to mCherry was then quantified as a ten-fold amplified ratio for each individual cell using the formula: 10×eGFP/mCherry. The median of the ratio was then calculated per set, normalized to the median of the DMSO ratio, and is denoted as relative abundance. Standard deviation is calculated from four replicates (n=4) unless described otherwise.

IKZF1Δ-CRBN = target: T1, IKZF1Δ-CRBN (Homo sapiens, UniProt Q13422+Q96SW2, DEL197-239); test: TR-FRET CRBN-IKZF1Δ binding assay
T1 construct: made in house; host or cells: Trichoplusia ni High-Five insect cells (baculovirus)
Procedure: Before TR-FRET measurements were conducted, the reactions were incubated for 15 min at RT. After excitation of terbium fluorescence at 337 nm, emission at 490 nm (terbium) and 520 nm (BODIPY) were recorded with a 70 μs delay over 600 μs to reduce background fluorescence and the reaction was followed over 30 200 second cycles of each data point using a PHERAstar FS microplate reader (BMG Labtech). The TR-FRET signal of each data point was extracted by calculating the 520/490 nm ratio. The heterobifunctional nature of small molecule degraders results in a three-body binding equilibrium complicated by potential cooperativity or avidity effects arising from protein-protein interactions (Douglass, Miller et al. 2013), all of which precludes direct interpretation of the binding data. […] The peak height of TR-FRET dBET dose response data was calculated in GraphPad Prism 7 using Area Under Curve analysis for three independent replicates (n=3) and the mean peak height and standard deviation calculated.
The standard deviation in IKZF1A TR-FRET compound titrations was calculated from three biological replicates (n=3) as an average of 5 technical replicates per well per experiment, or as an average of 5 technical replicates of single experiment for unlabelled protein titrations.

BRD4BD1 = target: T2, BRD4BD1 (Homo sapiens, UniProt O60885); test: BRD4BD1-EGFP/mCherry reporter cellular degradation assay (flow cytometry); format: cell-based; conditions: BRD4BD1-EGFP reporter cells
T2 construct: expressed in transfected cells
Procedure: as §1, with “Following 2-3 passage cycle FACS (FACSAria II, BD) was used to enrich for cells expressing eGFP and mCherry.” left out
as §2, with “The median of the ratio was then calculated per set, normalized to the median of the DMSO ratio, and is denoted as relative abundance.” left out

DDB1ΔB-CRBN / BRD4BD1 = test: TR-FRET dimerization assay, CRBN with BRD4BD1 wild type and mutants (peak height); format: binding, human; conditions: BRD4BD1 Q84 mutated to R (as in BRD2) or K, reference to WT
Procedure: Before TR-FRET measurements were conducted, the reactions were incubated for 15 min at RT. […] The TR-FRET signal of each data point was extracted by calculating the 520/490 nm ratio. […] The peak height of TR-FRET dBET dose response data was calculated in GraphPad Prism 7 using Area Under Curve analysis for three independent replicates (n=3) and the mean peak height and standard deviation calculated.

BRD4 = target: T3, BRD4 (Homo sapiens, UniProt O60885); test: Western blot of endogenous BRD4 in HEK293T cells; format: cell-based; conditions: 5 hours, immunoblot
T3 construct: retains activity on endogenous full length BRD4; endogenous in cells; host or cells: HEK293T
Procedure: (§3) HEK293T cells were seeded at 90% confluency in 12 well plates (353043, Falcon), left to attach for 1.5 h, followed by the compound treatment for 5 h. Primary and secondary antibodies used included anti-BRD4 at 1:1000 dilution (A301-985A-M, Bethyl Laboratories), anti-BRD2 at 1:2,000 dilution (A302-582A, Bethyl Laboratories), anti-BRD3 at 1:500 dilution (ab56342, Abcam), anti-GAPDH at 1:10,000 dilution (G8795, Sigma), IRDye680 Donkey anti-mouse at 1:10,000 dilution (926-68072, LiCor) and IRDye800 Goat anti-rabbit at 1:10,000 dilution (926-32211, LiCor).

BRD2 [2] = test: BRD2 bromodomain EGFP/mCherry reporter cellular degradation assay; format: cell-based, human; conditions: BRD2 bromodomain reporter cells
Procedure: as §1, with “Following 2-3 passage cycle FACS (FACSAria II, BD) was used to enrich for cells expressing eGFP and mCherry.” left out
as §2, with “The median of the ratio was then calculated per set, normalized to the median of the DMSO ratio, and is denoted as relative abundance.” left out

BRD2 [3] = target: T4, BRD2 (Homo sapiens, UniProt P25440); test: Western blot of BRD2 in HEK293T cells; format: cell-based; conditions: immunoblot
T4 construct: endogenous in cells; host or cells: HEK293T
Procedure: as §3

BRD3 [4] = target: T5, BRD3 (Homo sapiens, UniProt Q15059); test: Western blot of BRD3 in HEK293T cells; format: cell-based; conditions: immunoblot
T5 construct: endogenous in cells; host or cells: HEK293T
Procedure: as §3

BRD3 [5] = test: BRD3 bromodomain EGFP/mCherry reporter cellular degradation assay; format: cell-based, human; conditions: BRD3 bromodomain reporter cells
Procedure: as §1, with “Following 2-3 passage cycle FACS (FACSAria II, BD) was used to enrich for cells expressing eGFP and mCherry.” left out
as §2, with “The median of the ratio was then calculated per set, normalized to the median of the DMSO ratio, and is denoted as relative abundance.” left out

IKZF1Δ = target: T6, IKZF1Δ (Homo sapiens, UniProt Q13422+Q96SW2, DEL197-239); test: IKZF1Δ-EGFP fusion protein cellular degradation assay; format: cell-based; conditions: HEK293T cells
T6 construct: expressed in transfected cells
Procedure: as §1, with “Following 2-3 passage cycle FACS (FACSAria II, BD) was used to enrich for cells expressing eGFP and mCherry.” left out
as §2, with “The median of the ratio was then calculated per set, normalized to the median of the DMSO ratio, and is denoted as relative abundance.” left out

IKZF1, IKZF3 and ZFP91 = test: Quantitative proteomics (TMT LC-MS3) in MM.1s cells; format: cell-based, human; conditions: 1 μM, five hours
Procedure: A micro-BCA assay (Pierce) was used to determine the final protein concentration in the cell lysate. […] Proteins were precipitated using methanol/chloroform. In brief, four volumes of methanol were added to the cell lysate, followed by one volume of chloroform, and finally three volumes of water.

T1 sequence (Q96SW2 whole entry, stated change not applied): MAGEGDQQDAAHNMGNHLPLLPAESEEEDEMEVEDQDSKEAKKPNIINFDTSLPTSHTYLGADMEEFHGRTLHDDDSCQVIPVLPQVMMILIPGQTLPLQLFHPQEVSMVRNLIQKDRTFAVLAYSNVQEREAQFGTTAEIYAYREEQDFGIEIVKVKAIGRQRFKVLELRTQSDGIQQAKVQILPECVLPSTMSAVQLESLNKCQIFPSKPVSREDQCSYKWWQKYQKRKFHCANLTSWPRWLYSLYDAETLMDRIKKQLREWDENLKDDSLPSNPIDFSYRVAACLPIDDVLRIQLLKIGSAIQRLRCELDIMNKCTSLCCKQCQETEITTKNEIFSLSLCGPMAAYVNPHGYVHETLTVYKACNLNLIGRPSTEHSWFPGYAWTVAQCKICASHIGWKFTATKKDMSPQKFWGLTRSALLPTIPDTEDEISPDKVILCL
T1 sequence (Q13422 with tags, fused parts or gaps DEL197-239): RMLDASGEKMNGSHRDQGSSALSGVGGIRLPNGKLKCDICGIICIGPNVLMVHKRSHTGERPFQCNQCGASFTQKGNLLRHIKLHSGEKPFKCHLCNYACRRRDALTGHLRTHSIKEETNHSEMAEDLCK
T6 sequence (Q13422 with tags, fused parts or gaps DEL197-239): as above
T6 sequence (Q96SW2 whole entry, stated change not applied, the tested form may be a part): as the sequence (Q96SW2 whole entry, stated change not applied) above
T6 sequence (Q16531 whole entry partner, the tested form may be a part): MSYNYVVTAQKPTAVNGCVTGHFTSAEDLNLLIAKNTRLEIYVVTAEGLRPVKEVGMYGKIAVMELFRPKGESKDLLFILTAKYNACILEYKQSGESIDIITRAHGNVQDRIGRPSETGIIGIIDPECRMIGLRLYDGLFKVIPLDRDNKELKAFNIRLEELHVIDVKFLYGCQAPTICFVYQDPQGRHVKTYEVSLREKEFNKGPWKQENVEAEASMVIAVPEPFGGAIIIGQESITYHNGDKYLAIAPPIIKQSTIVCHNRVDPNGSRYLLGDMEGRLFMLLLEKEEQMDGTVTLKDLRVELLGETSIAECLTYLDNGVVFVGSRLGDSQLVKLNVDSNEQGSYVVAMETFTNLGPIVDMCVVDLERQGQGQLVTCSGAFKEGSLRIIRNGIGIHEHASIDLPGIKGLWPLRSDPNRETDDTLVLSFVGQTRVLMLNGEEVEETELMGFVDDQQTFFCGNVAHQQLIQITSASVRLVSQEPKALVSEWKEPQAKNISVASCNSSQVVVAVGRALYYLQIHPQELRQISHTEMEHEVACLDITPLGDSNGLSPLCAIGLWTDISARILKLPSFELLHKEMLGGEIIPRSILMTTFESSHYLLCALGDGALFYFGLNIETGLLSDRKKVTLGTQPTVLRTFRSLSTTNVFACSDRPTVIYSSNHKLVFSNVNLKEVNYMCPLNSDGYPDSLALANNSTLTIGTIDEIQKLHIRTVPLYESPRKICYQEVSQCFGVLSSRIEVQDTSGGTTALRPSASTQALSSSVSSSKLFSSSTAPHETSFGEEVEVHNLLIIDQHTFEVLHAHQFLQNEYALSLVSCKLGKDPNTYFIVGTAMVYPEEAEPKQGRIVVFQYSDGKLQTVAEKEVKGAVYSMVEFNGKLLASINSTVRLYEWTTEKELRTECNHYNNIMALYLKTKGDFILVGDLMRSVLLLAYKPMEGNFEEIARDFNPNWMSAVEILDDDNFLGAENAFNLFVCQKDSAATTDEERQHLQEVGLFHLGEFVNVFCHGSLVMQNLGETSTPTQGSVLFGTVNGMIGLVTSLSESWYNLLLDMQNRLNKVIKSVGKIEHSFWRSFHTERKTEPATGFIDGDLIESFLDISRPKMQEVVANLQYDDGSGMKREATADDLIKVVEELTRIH
T4 sequence (P25440 whole entry): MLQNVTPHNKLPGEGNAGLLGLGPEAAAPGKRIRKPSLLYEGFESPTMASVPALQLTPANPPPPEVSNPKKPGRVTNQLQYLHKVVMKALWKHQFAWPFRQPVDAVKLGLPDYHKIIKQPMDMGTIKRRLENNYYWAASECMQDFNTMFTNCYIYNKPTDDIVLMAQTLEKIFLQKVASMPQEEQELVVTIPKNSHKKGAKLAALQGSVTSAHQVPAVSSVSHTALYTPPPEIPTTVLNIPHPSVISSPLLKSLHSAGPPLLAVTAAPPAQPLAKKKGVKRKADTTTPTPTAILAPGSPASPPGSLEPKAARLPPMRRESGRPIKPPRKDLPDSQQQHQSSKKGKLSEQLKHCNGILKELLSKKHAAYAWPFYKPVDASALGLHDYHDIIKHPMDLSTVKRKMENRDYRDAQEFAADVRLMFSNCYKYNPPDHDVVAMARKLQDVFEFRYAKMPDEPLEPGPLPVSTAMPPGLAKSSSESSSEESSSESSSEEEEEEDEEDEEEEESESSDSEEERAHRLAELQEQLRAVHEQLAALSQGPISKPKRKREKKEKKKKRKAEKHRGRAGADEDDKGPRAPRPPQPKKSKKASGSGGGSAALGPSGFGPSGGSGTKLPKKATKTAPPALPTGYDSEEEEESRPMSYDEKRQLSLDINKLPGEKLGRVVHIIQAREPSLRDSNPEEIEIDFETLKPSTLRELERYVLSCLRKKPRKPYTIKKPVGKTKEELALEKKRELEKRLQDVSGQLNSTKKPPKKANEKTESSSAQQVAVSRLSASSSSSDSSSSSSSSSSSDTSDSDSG
T5 sequence (Q15059 whole entry): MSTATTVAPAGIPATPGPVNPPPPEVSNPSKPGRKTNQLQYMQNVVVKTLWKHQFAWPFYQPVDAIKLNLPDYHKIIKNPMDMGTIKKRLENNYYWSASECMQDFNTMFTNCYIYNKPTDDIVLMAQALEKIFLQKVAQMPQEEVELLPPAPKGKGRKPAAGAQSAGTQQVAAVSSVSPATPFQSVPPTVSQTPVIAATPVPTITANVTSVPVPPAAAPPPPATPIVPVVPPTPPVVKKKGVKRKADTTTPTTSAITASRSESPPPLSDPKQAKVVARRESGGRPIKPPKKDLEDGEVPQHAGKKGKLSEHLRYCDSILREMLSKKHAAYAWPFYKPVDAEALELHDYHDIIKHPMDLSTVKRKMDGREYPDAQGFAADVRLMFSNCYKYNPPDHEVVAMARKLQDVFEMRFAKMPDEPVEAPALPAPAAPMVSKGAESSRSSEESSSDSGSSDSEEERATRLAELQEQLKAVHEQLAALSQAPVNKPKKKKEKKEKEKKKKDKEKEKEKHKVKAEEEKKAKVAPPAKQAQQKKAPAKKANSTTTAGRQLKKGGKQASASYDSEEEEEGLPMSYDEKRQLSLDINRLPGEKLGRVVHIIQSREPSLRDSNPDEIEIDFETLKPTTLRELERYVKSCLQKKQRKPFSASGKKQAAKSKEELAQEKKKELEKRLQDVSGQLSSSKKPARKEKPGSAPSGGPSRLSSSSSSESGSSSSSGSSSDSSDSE

Structure (SMILES): Cc1sc2c(c1C)C(c1ccc(Cl)cc1)=N[C@@H](CC(=O)OC(C)(C)C)c1nnc(C)n1-2 [JQ1]
- relative affinity for BRD4BD1 and BRD4BD2 (BRD4BD1 and BRD4BD2): equal affinities

Structure (SMILES): Cc1ncsc1-c1ccc(CNC(=O)[C@@H]2C[C@@H](O)CN2C(=O)[C@@H](NC(=O)COCCOCCOCCNC(=O)C[C@@H]2N=C(c3ccc(Cl)cc3)c3c(sc(C)c3C)-n3c(C)nnc32)C(C)(C)C)cc1 [MZ1, reference compound]
- degradation activity across BET bromodomains [1]: activity on most bromodomains

Structure (SMILES): Cc1sc2c(c1C)C(c1ccc(Cl)cc1)=N[C@@H](CC(=O)NCCOc1cccc3c1C(=O)N(C1CCC(=O)NC1=O)C3=O)c1nnc(C)n1-2 (stereo partly shown) [ZXH-2-42]
- IKZF1-CRBN complex formation induced by compound (IKZF1Δ-CRBN): greatly reduced compared to their nitrogen analogs

Structure (SMILES): COC(=O)C[C@@H]1N=C(c2ccc(Cl)cc2)c2c(sc(C(=O)NCCCCCCCCOc3cccc4c3C(=O)N(C3CCC(=O)NC3=O)C4=O)c2C)-n2c(C)nnc21 (stereo partly shown) [ZXH-2-43]
- IKZF1-CRBN complex formation induced by compound (IKZF1Δ-CRBN): greatly reduced compared to their nitrogen analogs

Structure (SMILES): COC(=O)C[C@@H]1N=C(c2ccc(Cl)cc2)c2c(sc(C(=O)NCCCCCCCCOc3ccc4c(c3)C(=O)N(C3CCC(=O)NC3=O)C4=O)c2C)-n2c(C)nnc21 (stereo partly shown) [ZXH-2-45]
- IKZF1-CRBN complex formation induced by compound (IKZF1Δ-CRBN): greatly reduced compared to their nitrogen analogs

Structure (SMILES): COC(=O)C[C@@H]1N=C(c2ccc(Cl)cc2)c2c(sc(C(=O)NCCCCNc3cccc4c3C(=O)N(C3CCC(=O)NC3=O)C4=O)c2C)-n2c(C)nnc21 (stereo partly shown) [ZXH-2-184]
- selectivity of BRD4 degradation over BRD2 and BRD3 [1]: selective degradation of BRD4; also recorded: selectively targets BRD4 for degradation and spares BRD2 and BRD3

- degradation activity on BRD4BD1 (BRD4BD1): active on BRD4BD1
- DC50 (BRD4BD1; 5 h, read-out: DC50/5h (half-maximal degradation after 5 hours of treatment)): ~5 nM
- degradation of BRD2 (BRD2 [3]): inactive
- degradation of BRD3 (BRD3 [4]): inactive
Structure (SMILES): COC(=O)C[C@@H]1N=C(c2ccc(Cl)cc2)c2c(sc(C(=O)NCCCCCNc3cccc4c3C(=O)N(C3CCC(=O)NC3=O)C4=O)c2C)-n2c(C)nnc21 (stereo partly shown) [ZXH-03-26]
- complex formation with CRBN (TR-FRET peak height) (DDB1ΔB-CRBN / BRD4BD1): decreases complex formation with CRBN
- degradation of endogenous BRD4 (BRD4): degrades endogenous BRD4 with comparable efficacy compared to the best pan-BET degrader dBET6
- selectivity of BRD4 degradation over BRD2 and BRD3 [1]: selectively targets BRD4 for degradation and spares BRD2 and BRD3
- degradation activity across BET bromodomains [1]: activity exclusively on the first bromodomain of BRD4
- concentrations at which degradation of BRD2 is spared (BRD2 [2]): > 10 µM
- concentrations at which degradation of BRD3 is spared (BRD3 [5]): > 10 µM

Structure (SMILES): Cc1sc2c(c1C)C(c1ccc(Cl)cc1)=N[C@@H](CC(=O)NCCCCCCCCNC(=O)COc1cccc3c1C(=O)N(C1CCC(=O)NC1=O)C3=O)c1nnc(C)n1-2 (stereo partly shown) [dBET6, reference compound]
- IKZF1-CRBN complex formation induced by compound (IKZF1Δ-CRBN): do not induce IKZF1-CRBN complex formation
- cellular IKZF1 degradation (IKZF1Δ): relatively ineffective at promoting IKZF1 degradation

Structure (SMILES): COC(=O)C[C@@H]1N=C(c2ccc(Cl)cc2)c2c(sc(C(=O)NCCCCCCCCNC(=O)COc3cccc4c3C(=O)N(C3CCC(=O)NC3=O)C4=O)c2C)-n2c(C)nnc21 (stereo partly shown) [dBET23]
- co-degradation of CRBN-lenalidomide neo-substrates IKZF1, IKZF3 and ZFP91 (IKZF1, IKZF3 and ZFP91): not dBET23 exhibits pronounced co-degradation
